Test results: a melting point compilation (Tetko et al.; mined from patent text by program, amines drawn as free bases though some values may be those of a salt)

| Compound | melting point [°C] |
| --- | --- |
| CN1CCCN(C(=O)Nc2ccccc2Cc2ncc[nH]2)CC1 | 139 to 143 |
| CC(C)c1nn(-c2ccc(C(F)(F)F)nn2)cc1CCCO | 113 to 114 |
| CNc1n[nH]c(=O)n1N=C(C)CC(C)C | 136 |
| COc1ccc(C(=O)OC2C(O)C=C(C)C(=O)CC2(C)C)cc1OC (configuration not stated) | 150 to 152 |
| CC(C)(C)OC(=O)N[C@@H](CC1CCCCC1)[C@H](O)c1ccccn1 | 84 to 85 |
| COc1ccc(-c2c(C=O)cc(OC)c(OC)c2OC)c(C=O)c1OS(C)(=O)=O | 130 to 131 |
| NS(=O)(=O)c1cc2cc3c(cc2[nH]1)OCO3 | 234 to 237 |
| Oc1ncnc2c(F)ccc(F)c12 | 257 to 258 |
| c1ccc(-c2cn[nH]c2)nc1 | 136 |
| O=C1OC(=O)c2c1cccc2N1C(=O)CCC1=O | 202 to 205 |
| CCc1cc(OC)c(N)c2ccccc12 | 80 |
| CCOC(=O)c1ccc(N(C)Cc2ccc(Cl)cc2)cc1 | 106 to 107 |
| CN(C(=O)C1CCC1)c1cccc(-c2ccnc3c(C#N)cnn23)c1 | 157 to 158 |
| CCOc1ccc2c(c1)C(=O)Cc1c(Cl)cccc1S2 | 121 to 123 |
| COC(=O)c1cc(I)ccc1NC=C1C(=O)OC(C)(C)OC1=O | 206 to 208 |
| CCOc1nn(-c2ccc(C(F)(F)F)cn2)cc1CCCOc1cc(OC)ccc1CCC(=O)O | 115 to 116 |
| CCCCn1c(=O)c(C(=O)OCC)c(N)c2cnc(C)nc21 | 214 to 216 |
| O=C1N=C(N2CCOCC2)SC1=Cc1cc(-c2ccc(O)c(C34CC5CC(CC(C5)C3)C4)c2)c(O)cc1O | 306 to 310 |
| CCn1c2ccccc2c2sccc(=O)c21 | 103 to 104 |
| CCN(CC)CCNc1ccc(C)c2sc3ccc(OC)cc3c(=O)c12 | 81 to 82 |
| CC(C)(CO)NS(=O)(=O)c1cnc(NC(=O)c2cnn3c(C(F)(F)F)cc(-c4ccc(C(F)(F)F)cc4)nc23)s1 | 292 |
| c1ccc2c(c1)[nH]c1c2ccc2cc[nH]c21 | 295 |

| Compound | melting point [°C] |
| --- | --- |
| Oc1cc(Br)c(Br)cc1O | 110 to 111 |
| COc1ccc(Br)cc1C(=O)C(Br)C(Br)c1cccc(Br)c1 (configuration not stated) | 124 to 126 |
| CC(C)(CCCCCCCCCCC(C)(C)CCC(=O)O)CCC(=O)O | 71 to 72 |
| COc1ccc(C(=O)NCCc2cccc(C)c2)cc1OC | 108 to 109 |
| COc1ccc2c(c1)CCC1=C2CCC2(CC(C)C)C(=O)CC=C12 (configuration not stated) | 57 to 60 |
| CC(=O)NCCCC(=NNC(N)=S)c1ccccc1 | 74 to 83 |
| CCCCCCCCc1ncc(-c2ccc(OC(=O)[C@H]3CCCO3)cc2)cn1 | 68 |
| CS(=O)(=O)O[C@@H]1CCc2c(F)cc(F)cc2C1 | 79 to 80 |
| COc1cc(C(C)=O)ccc1OCCN1CCN(c2nsc3ccccc23)CC1 | 98 to 100 |
| COc1cc(OCCN2CCCC2)cc(-c2nc3cc(OC)cc(OC)c3c(=O)[nH]2)c1 | 159 to 160 |
| N#Cc1ccc(N2CCN(Cc3cnc4c(c3)NC(=O)[C@@H]3CCCN43)CC2)c(F)c1 | 226 |
| Clc1cccc(/C=C/[C@H]2CCCN2c2ncnc3[nH]cnc23)c1 | 194 to 196 |
| O=C(O)CN1C(=O)C=CC1=O | 110 |
| N#Cc1ccc(C(=O)N2CCN(C(=O)C3CCN(c4ccncn4)CC3)CC2)cc1 | 192 to 193 |
| CC(C)(C)c1cc(-c2nnc(NS(C)(=O)=O)s2)cc(C(C)(C)C)c1O | 293 to 294 |
| CCCCc1nc2c(N)nc3c(c2n1CCNC(=O)c1cc(C(C)(C)C)c(O)c(C(C)(C)C)c1)NCCC3 | 208 to 210 |
| Fc1cccc(Cl)c1COc1cc(Cl)cnc1NC(=S)Nc1ccc(Cl)cc1 | 158 to 160 |
| CC(=O)Oc1ccc(C(=O)NNC(=O)OC(C)(C)C)cc1OC(C)=O | 78 to 82 |
| CC(C)C[C@@H](C(=O)O)N1C(=O)NC(C(F)(F)F)(C(F)(F)F)C1=O | 154 to 156 |
| CCC(C)c1nn(-c2ccc(C(F)(F)F)cn2)cc1CCCOc1c(CC(=O)O)cccc1OC (configuration not stated) | 117 to 118 |
| Cc1cc(C)c(S(=O)(=O)NC(C)CS)c(C)c1 (configuration not stated) | 74 to 76 |
| CC(C)(C)n1cc(C(=O)O)c(=O)c2cc(F)c(N3CCNCC3)nc21 | > 270 |

| Compound | melting point [°C] |
| --- | --- |
| COc1cc([N+](=O)[O-])c(N)cc1O | 208 |
| CC(CNCC(O)c1ccccc1)OCc1ccccc1 (configuration not stated) | 90 to 100 |
| CC1(C)COc2ccc(C(=O)O)cc21 | 171 to 173 |
| Nc1ncc(C#Cc2ccc(Cl)cc2)c(N2CCOCC2)n1 | 193 to 194 |
| CC(=O)N1CCCCc2ccc(C(=O)CCN(C)C)cc21 | 68 to 70 |
| c1cc2cc(Nc3ncnc4cnc(N5CCOCC5)nc34)ccc2cn1 | 208 to 210 |
| O=C1NC(O)C2=C1c1ccc(Cl)cc1C(c1ccccc1Cl)=NC2 (configuration not stated) | 221 to 222 |
| CCOC(=O)N1CCC(O)(c2cccs2)CC1 | 242 |
| OCC1CC(n2c(Cl)nc3cc(Cl)c(Cl)cc32)C(O)C1O (configuration not stated) | 206 to 210 |
| CC(C)c1nn(C(=O)NC(C)(C)CCc2ccccc2Cl)c(=O)n1N | 159 |
| N#Cc1ccc(Cn2c(=O)[nH]c3cc(Cl)cc(Cl)c3c2=O)cc1 | 317 to 320 |
| CC(=O)NCc1ccc2c(c1)ncn2-c1cccc(-c2nccs2)c1 | 156 |
| CS(=O)(=S)OCCCCCCCCCCOS(C)(=O)=S (configuration not stated) | 45 to 52 |
| Cc1ccnc(N2CCN(C3Sc4ccccc4NC3=O)CC2)c1 (configuration not stated) | 245 |
| C=COCCONC(=O)c1cc(Cl)c(F)c(F)c1Nc1ccc(I)cc1F | 119 to 120 |
| O=C1c2ccccc2C(=O)c2sc(-c3cc(Br)c(Br)o3)nc21 | > 260 |
| CCN(CC)CCNC(=O)c1cc(Cl)c(N)cc1OCCCN1C(=O)c2ccccc2C1=O | 141 to 143 |
| C#CCn1c(=O)n(C2CCN(C(=O)OCC)CC2)c2ccc(Cl)cc21 | 126 |
| O=c1[nH]c2cc3[nH]c(-c4ccnnc4)nc3cc2o1 | 330 |
| COc1ccc(Cl)c(CC#N)c1 | 62 to 65 |
| CSc1nnc(C(F)F)s1 | 23 |
| Cc1ccc(S(=O)(=O)OCC2(CO)OC(n3ccc(=O)[nH]c3=O)C(O)C2O)cc1 (configuration not stated) | 119 to 120 |

Next, values leading:

| melting point [°C] | Compound |
| --- | --- |
| 170 | CC(C)(C)OC(=O)Nc1cc(OCC#N)c(C#Cc2ccccc2)cc1[N+](=O)[O-] |
| 50 to 52 | COC(=O)CCOc1ccc(CNC(=O)[C@@H]2Cc3ccccc3N2S(=O)(=O)c2ccc(C(C)(C)C)cc2)cc1 |
| 121 to 122 | CCOc1nn(Cc2ccc(OCc3csc(-c4ccccc4)n3)nc2)cc1CCC(=O)O |
| 122 to 123 | O=C(O)[C@H](Cc1ccc(C(F)(F)F)cc1)[C@@H](O)c1ccccc1F (racemic) |
| 125 to 130 | CCONC(=O)c1cc(NCC2CCN(Cc3ccccc3)CC2)ccn1 |
| 224 | Cn1c(=O)nc(-c2ccccc2)c2cc(Cl)ccc21 |
| 189 to 190 | COC(Nc1ccccc1)(OC)C1(Br)C=CN=C(C(=O)c2ccccc2)C1 (configuration not stated) |
| 175 to 176 | COc1ccc2c(c1OC)CC(c1ccccc1)CC2(O)CN (configuration not stated) |
| 195 to 196 | N#Cc1cccc(NC(=O)c2ccc(-n3nc(C(F)(F)F)cc3C(F)(F)F)cc2)c1 |
| 112 to 113 | COc1cc(N)ccc1OCCCN1CCN(c2ccccc2)CC1 |
| 149 to 150 | CCCN1C(=O)C2(c3ccc(N)cc3)CC(c3ccc(N)cc3)(C2)C1=O |
| 229 to 232 | CCOc1ccc(-c2nn(C(C)c3oc4ccccc4c(=O)c3-c3cccc(F)c3)c3ncnc(N)c23)cc1 (configuration not stated) |
| 163 to 165 | COc1cn(-c2ccc(N(N)C(=O)OC(C)(C)C)cc2F)nc(-c2ccnn2-c2ccccc2)c1=O |
| 258 to 260 | O=C(CCNc1c(C(=O)O)[nH]c2cc(Cl)ccc12)c1cccc(F)c1 |
| 286 to 289 | Cc1cc(Nc2nc(-c3ccncc3)nc3ccccc23)[nH]n1 |
| 222 to 224 | O=C1CN(C(=O)c2ccccc2Cl)c2ccccc2N1 |
| 154 to 155 | CN1CC[C@H](NC(=O)c2ccccc2)[C@H](c2ccccc2)C1 (relative stereo) |
| 239 to 240 | O=C(O)c1ccc(-c2nnc(-c3ccccc3[N+](=O)[O-])o2)cc1 |

| melting point [°C] | Compound |
| --- | --- |
| 120 to 125 | COc1ccccc1N1CCN(CCn2nc(-c3c(-c4ccccc4)nn4ccccc34)ccc2=O)CC1 |
| 163 to 165 | Cc1cc(F)ccc1NC(=O)c1cccc(S(=O)(=O)N(C)c2ccc(Br)cc2)c1 |
| 228 to 232 | Nc1ccc(Sc2c(NCC=Cc3ccccc3)cc(C(=O)O)cc2S(N)(=O)=O)cc1 |
| 133 to 136 | Cc1ccc(S(=O)(=O)NCCc2ccc(C(=O)CBr)cc2)cc1 |
| 198 to 201 | O=C(/C=C/C=C/c1ccccc1)NCCCOc1ccc(CC(=O)NO)cc1 |
| 66 to 69 | O=C1OCC(c2ccc(Cl)cc2)C1CSCc1ccccc1 (configuration not stated) |
| 143 to 144 | CCCc1c(OCCCS(=O)(=O)c2ccc(C(=O)CCC#N)cc2)ccc(C(C)=O)c1O |
| 87 to 88 | O=C(NCc1ccccc1)c1ccnc(NC(=O)c2cccc(C(F)(F)F)c2)c1 |
| 112 to 113 | COC(=O)c1ccc2ncn(-c3ccc(OC)cc3)c2c1 |
| 162 to 163 | CCCCc1nc2ccccc2n1Cc1ccc(-c2ccccc2C2SC(=O)NC2=O)cc1 (configuration not stated) |
| > 300 | N#Cc1ccc2[nH]c(=O)c3ccccc3c(=O)c2c1 |
| 204 to 206 | NNc1ccnc2c(NC(=O)c3c(Cl)cccc3Cl)cccc12 |
| 262 | CN1C(C(=O)Nc2nc3ccccc3s2)=C(O)c2ccc3ccccc3c2S1(=O)=O |
| 106 | O=S(=O)(CC=C(c1ccccc1)c1ccccc1)c1ccccc1 |
| 217 to 220 | Cc1cc2c(-c3ccccc3)c(CC(=O)O)n(C)c(=O)c2cc1C |
| 103 to 104 | COC(=O)c1cccc(-c2nc(COc3ccc(C=O)cc3)c(C)o2)c1 |
| 135 to 136 | Oc1ccc(Cc2ccccc2)c2c1NCCC2 |
| 87 to 89 | O=C(NCC1Cc2cccc(-c3ccc(Cl)cc3Cl)c2O1)OCc1ccccc1 (configuration not stated) |
